According to patent US12636291B2, “Compositions and methods relating to use of agonists of ALPHA5-containing GABAA receptors” (Centre for Addiction and Mental Health, priority 2019, dated 2026):

Tested on: heterozygous 5×FAD mice
Experiment: Spontaneous alternation in the Y-Maze, 5×FAD Alzheimer's disease model pilot
Format: in vivo, mouse
Details: 6 months of age, acute i.p. 10 mg/kg vs vehicle, FIG. 23
Method: A pilot study was performed in the 5×FAD mouse Alzheimer's disease model system using 15 heterozygous animals tested from the age of 4 to 6 months. The same animals were tested monthly for spontaneous alternation in the Y-Maze test. When they reached the age of 6 months, 50% of the animals were injected i.p. with vehicle or with GL-II-73 (10 mg/kg).
Animals: For the experiments described above, young (n=11, age 2 months) and old male mice (N=23) were purchased from Charles River. Old mice were obtained at the age of 9-10 months and were kept in the animal facility until they reached the age of 22 months. Young mice (2 months old) were purchased when old mice had already reached the age of 22 months. All animals were single housed. Experiments were performed on mice aged 2 months (“young”) or 22 months (“old”) at the beginning of the experimental protocol. The second set of experiments with the Washout group included 8 young mice and 22 old mice. Old mice were split into 3 groups of 7-8 between “Old”, “Old-treated” and “Old-Washout”. […]
Spontaneous alternation in the Y-Maze: Mice were tested in a Y maze test as an assessment of working memory. […] The alternation rate was calculated and was expressed as a percentage: […]

C#Cc1ccc2c(c1)C(c1ccccc1F)=N[C@H](C)c1c(C(=O)N(C)C)ncn1-2 (stereo in doubt) [GL-II-73, 8-ethynyl-6-(2-fluorophenyl)-N,N,4-trimethyl-4H-benzo[f]imidazo[1,5-a][1,4]diazepine-3-carboxamide]
alternation performance in the Y-Maze test: a reversal of this decrease in alternation performance in the GL-II-73 treated group, although also not reaching statistical significance
